pIC50: −log10 of the molar value.
Molecular target: T1, SCD1 (Mus musculus, UniProt P13516)
T1 construct: Mouse liver microsomes, prepared from mice fed a high carbohydrate diet, were a source of the SCD; from tissue; host or cells: mouse liver microsomes (mice fed a high carbohydrate diet)
T1 sequence (P13516 1-355): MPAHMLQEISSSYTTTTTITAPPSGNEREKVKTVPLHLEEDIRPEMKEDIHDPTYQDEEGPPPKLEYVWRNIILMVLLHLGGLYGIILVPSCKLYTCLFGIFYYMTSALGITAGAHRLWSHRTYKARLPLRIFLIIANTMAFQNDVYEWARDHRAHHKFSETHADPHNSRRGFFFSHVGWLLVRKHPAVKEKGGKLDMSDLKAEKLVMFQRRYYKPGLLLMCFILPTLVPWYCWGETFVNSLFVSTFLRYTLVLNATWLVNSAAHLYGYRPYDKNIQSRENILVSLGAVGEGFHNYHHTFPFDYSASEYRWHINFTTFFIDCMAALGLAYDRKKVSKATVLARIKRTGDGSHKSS
Assay: SCD assay: release of tritiated water from desaturation of 9,10-3H-stearoyl CoA, mouse liver microsomes
Type: biochemical
Excerpt: Stearoyl CoA desaturase activity was monitored by a modification of the acyl carrier protein assay described by B. R. Talamo and K. Bloch in Anal. Biochem. 1968, 29, 300-304. The SCD assay monitors the release of tritiated water from the desaturation of 9,10-^3H-stearoyl CoA.
Mouse liver microsomes, prepared from mice fed a high carbohydrate diet, were a source of the SCD and cyt b5 and cyt b5 reductase, necessary accessory proteins for the coupled reaction. Reaction mixtures for compound titrations contained 50 mM Tris HCl pH 7.5, 100 mM NaCl, 0.165 mg/ml BSA, 2.4% DMSO, 1 mM NADH, 0.03% T-20, and 300 nM (9,10) ^3H-stearoyl CoA (Perkin-Elmer). Reactions were initiated upon the addition of 4 ug/ml SCD microsomes. Incubations were terminated after 25 minutes at room temperature with cold 6% TCA. After standing 10 minutes at 4 deg C., samples were centrifuged 15 minutes at 4000 rpm to pellet precipitated protein. Supernatants were added to microtiter plates containing suspensions of activated charcoal (Darco G-60, Fisher Scientific) and mixed by inversion. Plates were then centrifuged to separate ^3H—H2O product from charcoal-bound reactants. Supernatants were quantitated in a Perkin Elmer Topcount 384 after solubilization in ScintiSafe Plus 50% (Fisher Scientific).
Inhibition (%) of SCD activity by compounds was calculated according to the following formula: % Inhibition=100*[1−(CPMsample−CPMblank)/(CPMtotal−CPMblank)]

SMILES	pIC50
Cc1cccc(CN2CCN(c3cc(=O)[nH]cn3)CC2)c1 [Example 1, 6-[4-(3-Methyl-benzyl)-piperazin-1-yl]-3H-pyrimidin-4-one]	≥ 6.00
O=c1cc(N2CCN(Cc3ccccc3C(F)(F)F)CC2)nc[nH]1 [Example 8, 6-[4-(2-Trifluoromethyl-benzyl)-piperazin-1-yl]-3H -pyrimidin-4-one]	≥ 6.00
O=c1cc(N2CCN(Cc3cc(C(F)(F)F)ccc3C(F)(F)F)CC2)nc[nH]1 [Example 9, 6-[4-(2,5-Bis-trifluoromethyl-benzyl)-piperazin-1-yl]-3H -pyrimidin-4-one]	≥ 6.00
N#Cc1cccc(CN2CCN(c3cc(=O)[nH]cn3)CC2)c1 [Example 10, 3-[4-(6-Oxo-1,6-dihydro-pyrimidin-4-yl)-piperazin-1-ylmethyl]-benzonitrile]	≤ 5.96
N#Cc1cc(CN2CCN(c3cc(=O)[nH]cn3)CC2)ccc1F [Example 11, 2-Fluoro-5-[4-(6-oxo-1,6-dihydro-pyrimidin-4-yl) -piperazin-1-ylmethyl]-benzo-nitrile]	≥ 6.00
O=c1cc(N2CCN(Cc3cccc(Cl)c3)CC2)nc[nH]1 [Example 12, 6-[4-(3-Chloro-benzyl)-piperazin-1-yl]-3H-pyrimidin-4-one]	≥ 6.00
O=c1cc(N2CCN(Cc3cccc(Br)c3)CC2)nc[nH]1 [Example 13, 6-[4-(3-Bromo-benzyl)-piperazin-1-yl]-3H-pyrimidin-4-one]	≥ 6.00
O=c1cc(N2CCN(Cc3c(Cl)cccc3Cl)CC2)nc[nH]1 [Example 14, 6-[4-(2,6-Dichloro-benzyl)-piperazin-1-yl]-3H-pyrimidin-4-one]	≤ 5.96
O=c1cc(N2CCN(Cc3ccc(Cl)c(Cl)c3)CC2)nc[nH]1 [Example 15, 6-[4-(3,4-Dichloro-benzyl)-piperazin-1-yl]-3H-pyrimidin-4-one]	≥ 6.00
O=c1cc(N2CCN(Cc3c(Cl)ccc(Cl)c3Cl)CC2)nc[nH]1 [Example 16, 6-[4-(2,3,6-Trichloro-benzyl)-piperazin-1-yl]-3H-pyrimidin-4-one]	≥ 6.00
O=c1cc(N2CCN(Cc3cccc(Cl)c3Cl)CC2)nc[nH]1 [Example 17, 6-[4-(2,3-Dichloro-benzyl)-piperazin-1-yl]-3H-pyrimidin-4-one]	≥ 6.00
O=c1cc(N2CCN(Cc3ccccc3Br)CC2)nc[nH]1 [Example 18, 6-[4-(2-Bromo-benzyl)-piperazin-1-yl]-3H-pyrimidin-4-one]	≥ 6.00
O=c1cc(N2CCN(Cc3cc(F)ccc3Br)CC2)nc[nH]1 [Example 20, 6-[4-(2-Bromo-5-fluoro-benzyl)-piperazin-1-yl]-3H -pyrimidin-4-one]	≥ 6.00

Now from value to compound:

pIC50	SMILES
≥ 6.00	Cc1ccccc1CN1CCN(c2cc(=O)[nH]cn2)CC1 [Example 2, 6-[4-(2-Methyl-benzyl)-piperazin-1-yl]-3H-pyrimidin-4-one]
≥ 6.00	Cc1cccc(C)c1CN1CCN(c2cc(=O)[nH]cn2)CC1 [Example 3, 6-[4-(2,6-Dimethyl-benzyl)-piperazin-1-yl]-3H-pyrimidin-4-one]
≤ 5.96	Cc1ccc(CN2CCN(c3cc(=O)[nH]cn3)CC2)c(C)c1 [Example 4, 6-[4-(2,4-Dimethyl-benzyl)-piperazin-1-yl]-3H-pyrimidin-4-one]
≤ 5.96	COc1ccc(CN2CCN(c3cc(=O)[nH]cn3)CC2)c(C)c1C [Example 5, 6-[4-(4-Methoxy-2,3-dimethyl-benzyl)-piperazin-1-yl]-3H-pyrimidin-4-one]
≤ 5.96	COc1ccc(Br)cc1CN1CCN(c2cc(=O)[nH]cn2)CC1 [Example 6, 6-[4-(5-Bromo-2-methoxy-benzyl)-piperazin-1-yl]-3H-pyrimidin-4-one]
≥ 6.00	COc1cc(Br)cc(CN2CCN(c3cc(=O)[nH]cn3)CC2)c1O [Example 7, 6-[4-(5-Bromo-2-hydroxy-3-methoxy-benzyl)-piperazin-1-yl]-3H -pyrimidin-4-one]
≤ 5.96	O=c1cc(N2CCN(Cc3cc(Br)ccc3F)CC2)nc[nH]1 [Example 19, 6-[4-(5-Bromo-2-fluoro-benzyl)-piperazin-1-yl]-3H -pyrimidin-4-one]
